# Laboratory results published in PMC10143825, “ABT-333 (Dasabuvir) Increases Action Potential Duration and Provokes Early Afterdepolarizations in Canine Left Ventricular Cells via Inhibition of IKr” (Pharmaceuticals, 2023).
# Molecular target: T1, hERG channel (Homo sapiens, UniProt Q12809)
# T1 construct: gene KCNH2
# Assay: cell-based
# T1 sequence (Q12809 whole entry): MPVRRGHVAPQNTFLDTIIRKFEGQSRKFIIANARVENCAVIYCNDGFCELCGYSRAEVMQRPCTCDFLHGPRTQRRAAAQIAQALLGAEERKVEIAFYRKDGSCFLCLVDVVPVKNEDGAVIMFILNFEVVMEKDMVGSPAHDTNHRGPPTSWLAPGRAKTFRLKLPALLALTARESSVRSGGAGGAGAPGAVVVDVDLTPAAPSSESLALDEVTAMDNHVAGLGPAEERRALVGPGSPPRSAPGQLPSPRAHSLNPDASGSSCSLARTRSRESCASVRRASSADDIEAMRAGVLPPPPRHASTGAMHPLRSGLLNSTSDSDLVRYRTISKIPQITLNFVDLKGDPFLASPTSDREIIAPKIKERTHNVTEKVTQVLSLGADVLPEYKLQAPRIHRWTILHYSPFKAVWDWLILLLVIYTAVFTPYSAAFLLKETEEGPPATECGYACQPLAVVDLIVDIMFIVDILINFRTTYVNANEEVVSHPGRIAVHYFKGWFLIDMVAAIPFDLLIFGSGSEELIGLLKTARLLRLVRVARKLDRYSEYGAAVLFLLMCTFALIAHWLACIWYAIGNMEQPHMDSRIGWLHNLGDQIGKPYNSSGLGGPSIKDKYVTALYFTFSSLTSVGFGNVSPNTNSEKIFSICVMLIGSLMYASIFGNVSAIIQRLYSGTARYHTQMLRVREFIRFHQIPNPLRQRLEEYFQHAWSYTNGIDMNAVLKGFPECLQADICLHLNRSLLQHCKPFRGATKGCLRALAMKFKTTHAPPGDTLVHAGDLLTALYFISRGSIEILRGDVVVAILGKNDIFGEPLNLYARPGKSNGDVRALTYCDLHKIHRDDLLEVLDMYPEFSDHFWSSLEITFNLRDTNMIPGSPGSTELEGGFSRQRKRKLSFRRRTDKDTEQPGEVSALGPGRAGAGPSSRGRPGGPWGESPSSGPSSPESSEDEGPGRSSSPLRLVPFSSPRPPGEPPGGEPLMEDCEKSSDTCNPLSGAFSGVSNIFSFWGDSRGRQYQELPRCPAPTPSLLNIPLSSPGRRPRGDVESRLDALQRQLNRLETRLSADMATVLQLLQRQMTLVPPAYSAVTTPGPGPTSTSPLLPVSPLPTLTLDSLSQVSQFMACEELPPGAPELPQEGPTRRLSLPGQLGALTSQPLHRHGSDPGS
compound,measurement,value
COc1c(-c2ccc3cc(NS(C)(=O)=O)ccc3c2)cc(-n2ccc(=O)[nH]c2=O)cc1C(C)(C)C [ABT-333],IC50,3.2 µM
